According to patent US11840686B2, “Modulation of prekallikrein (PKK) expression” (Ionis Pharmaceuticals, Inc., priority 2013, dated 2023):
Strand notation (5' to 3'): a small letter for the sugar, then the base; units joined by * are phosphorothioate-linked, units joined directly phosphodiester-linked; [ ] holds rarer units or linkages, { } end groups; capitals alone tell only the bases. e = 2'-O-(2-methoxyethyl) (MOE); [5mC] = 5-methylcytosine; d = 2'-deoxy (DNA)

system: human PKK mRNA; experiment: Antisense inhibition of human PKK mRNA in HepaRG cells, 3,000 nM (Example 1); format: cell-based; conditions: Table 1; PKK mRNA, HepaRG cells, 3,000 nM, electroporation, ~24 h, relative to untreated control cells
Experimental: Antisense oligonucleotides were designed targeting a PKK nucleic acid and were tested for their effects on PKK mRNA in vitro. HepaRG™ cells, which are terminally differentiated hepatic cells derived from a human hepatic progenitor cell line and retain many characteristics of primary human hepatocytes (Lubberstedt M. et al., J. Pharmacol. Toxicol. Methods 2011 63: 59-68), were used in the screen.
The chimeric antisense oligonucleotides in the tables below were designed as 5-10-5 MOE gapmers. The gapmers are 20 nucleosides in length, wherein the central gap segment comprises of ten 2′-deoxynucleosides and is flanked by wing segments on the 5′ direction and the 3′ direction comprising five nucleosides each. Each nucleoside in the 5′ wing segment and each nucleoside in the 3′ wing segment has a 2′-O-methoxyethyl modification. The internucleoside linkages throughout each gapmer are phosphorothioate linkages. All cytosine residues throughout each gapmer are 5-methylcytosines. “Start site” indicates the 5′-most nucleoside to which the gapmer is targeted in the human gene sequence. “Stop site” indicates the 3′-most nucleoside to which the gapmer is targeted in the human gene sequence.
Cultured HepaRG™ cells at a density of 20,000 cells per well were transfected using electroporation with 3,000 nM antisense oligonucleotide. After a treatment period of approximately 24 hours, RNA was isolated from the cells and PKK mRNA levels were measured by quantitative real-time PCR. Human primer probe set RTS3454 (forward sequence […], designated herein as SEQ ID NO: 20; reverse sequence […], designated herein as SEQ ID NO: 21; probe sequence […], designated herein as SEQ ID NO: 22) was used to measure mRNA levels. PKK mRNA levels were adjusted according to total RNA content, as measured by RIBOGREEN®. The antisense oligonucleotides were tested in a series of experiments that had similar culture conditions. Results are presented as percent inhibition of PKK, relative to untreated control cells.

| Substance | % inhibition |
| --- | --- |
| 530989 (eT*e[5mC]*eT*e[5mC]*e[5mC]*dT*d[5mC]*d[5mC]*dA*dA*dA*dG*dT*d[5mC]*dA*eA*e[5mC]*eT*e[5mC]*e[5mC]; antisense) [compound 530989] | 28% |
| 530991 (eA*eT*eT*e[5mC]*eA*dA*dT*dT*d[5mC]*dT*dT*d[5mC]*dT*d[5mC]*d[5mC]*eT*e[5mC]*e[5mC]*eA*eA; antisense) [compound 530991] | 43% |
| 530947 (antisense eG*eA*eA*eG*e[5mC]*dT*dA*d[5mC]*dA*dT*d[5mC]*d[5mC]*d[5mC]*d[5mC]*dA*e[5mC]*e[5mC]*eT*e[5mC]*eT) [compound 530947] | 27% |
| 530942 (antisense e[5mC]*eA*eG*eG*eA*dA*dA*d[5mC]*dT*dG*dT*dA*dG*d[5mC]*dA*eA*eA*e[5mC]*eA*eA) [compound 530942] | 22% |
| 530961 (antisense eT*eT*eG*eG*e[5mC]*dA*dT*dT*d[5mC]*dT*dT*d[5mC]*dA*dA*d[5mC]*eA*e[5mC]*eT*eG*e[5mC]) [compound 530961] | 88% |

same assay, conditions: Table 2; PKK mRNA, HepaRG cells, 3,000 nM, electroporation, ~24 h, relative to untreated control cells

| Substance | % inhibition |
| --- | --- |
| 531072 (eG*e[5mC]*eT*e[5mC]*eA*dG*dA*dA*dT*dT*dT*dG*dA*d[5mC]*dT*eT*eG*eA*eA*e[5mC]; antisense) [compound 531072] | 64% |
| 531047 (antisense eA*eT*e[5mC]*eT*eT*dG*dA*dT*dA*dT*d[5mC]*dT*dT*dT*dT*e[5mC]*eT*eG*eG*e[5mC]) [compound 531047] | 68% |
| 531066 (eA*eG*e[5mC]*eG*eA*d[5mC]*dT*dT*dT*dG*dG*dT*dG*dT*dA*eG*eA*e[5mC]*eA*e[5mC]; antisense) [compound 531066] | 67% |
| 531076 (eA*e[5mC]*eT*e[5mC]*eT*d[5mC]*d[5mC]*dA*dT*dG*d[5mC]*dT*dT*dT*dG*e[5mC]*eA*eG*eA*eT; antisense) [compound 531076] | 68% |
| 531060 (antisense eT*eG*eG*eT*eG*dA*dT*dG*d[5mC]*d[5mC]*d[5mC]*dA*d[5mC]*d[5mC]*dA*eA*eA*e[5mC]*eG*e[5mC]) [compound 531060] | 35% |
| 531068 (e[5mC]*e[5mC]*eA*eT*eG*dT*dA*d[5mC]*dT*d[5mC]*dA*dG*d[5mC]*dG*dA*e[5mC]*eT*eT*eT*eG; antisense) [compound 531068] | 59% |
| 531065 (antisense e[5mC]*eT*eT*eT*eG*dG*dT*dG*dT*dA*dG*dA*d[5mC]*dA*d[5mC]*e[5mC]*eA*eG*eG*eT) [compound 531065] | 57% |
| 531008 (eT*eG*e[5mC]*eT*eG*dG*dA*dA*dG*dA*dT*dG*dT*dT*d[5mC]*eA*eT*eG*eT*eG; antisense) [compound 531008] | 51% |
| 531070 (e[5mC]*eT*eG*eT*eG*dT*dT*dT*dT*d[5mC]*dT*d[5mC]*dT*dA*dA*eA*eA*eT*e[5mC]*e[5mC]; antisense) [compound 531070] | 68% |
| 531057 (antisense e[5mC]*eA*eT*e[5mC]*eT*dT*dT*dT*d[5mC]*d[5mC]*d[5mC]*d[5mC]*d[5mC]*dT*dT*e[5mC]*eT*eT*eT*eA) [compound 531057] | 48% |
| 531067 (eT*eA*e[5mC]*eT*e[5mC]*dA*dG*d[5mC]*dG*dA*d[5mC]*dT*dT*dT*dG*eG*eT*eG*eT*eA; antisense) [compound 531067] | 31% |

same assay, conditions: Table 3; HepaRG cells, electroporation with 3,000 nM antisense oligonucleotide, approx. 24 hours; PKK mRNA by RT-PCR (RTS3454), relative to untreated control cells

| Substance | % inhibition |
| --- | --- |
| 531089 (eA*eA*eA*eA*e[5mC]*dA*d[5mC]*d[5mC]*dA*dT*dT*dA*dA*dA*dT*e[5mC]*e[5mC]*eA*eT*eT; antisense) [compound 531089] | 45% |
| 531125 (antisense eA*e[5mC]*eT*e[5mC]*eG*d[5mC]*d[5mC]*dT*dT*dT*dG*dT*dG*dA*d[5mC]*eT*e[5mC]*eG*eA*eT) [compound 531125] | 23% |
| 531113 (antisense eA*eA*e[5mC]*eA*eG*dA*d[5mC]*dA*d[5mC]*dA*dT*dT*dA*dT*dT*eT*eA*eT*eA*eT) [compound 531113] | 0% |
| 531149 (antisense eA*eG*eA*eG*eG*dT*dA*dA*dA*dG*d[5mC]*dA*dA*d[5mC]*dT*eT*eG*e[5mC]*e[5mC]*e[5mC]) [compound 531149] | 45% |
| 531156 (antisense eT*e[5mC]*eT*eG*eA*dA*dA*dA*dG*d[5mC]*d[5mC]*d[5mC]*dT*d[5mC]*d[5mC]*eG*eA*eG*e[5mC]*eT) [compound 531156] | 0% |
| 531131 (antisense eT*eA*eG*eA*eA*dA*dG*dA*dG*dT*dA*dA*dG*d[5mC]*d[5mC]*eT*eT*e[5mC]*eA*e[5mC]) [compound 531131] | 0% |
| 531096 (e[5mC]*e[5mC]*e[5mC]*eA*eA*dT*dT*d[5mC]*dT*dT*dA*dG*dT*d[5mC]*d[5mC]*eT*eT*eT*eA*eA; antisense) [compound 531096] | 45% |
| 531109 (antisense eA*eG*e[5mC]*e[5mC]*e[5mC]*dA*dA*dG*dG*dA*dA*d[5mC]*dA*dT*d[5mC]*eT*e[5mC]*eA*e[5mC]*e[5mC]) [compound 531109] | 52% |

same assay, conditions: Table 4; HepaRG cells, electroporation with 3,000 nM antisense oligonucleotide, approx. 24 hours; PKK mRNA by RT-PCR (RTS3454), relative to untreated control cells

| Substance | % inhibition |
| --- | --- |
| 531228 (e[5mC]*eA*eG*eA*eG*dT*dA*dA*dA*d[5mC]*dT*d[5mC]*d[5mC]*d[5mC]*d[5mC]*eA*eT*e[5mC]*eT*e[5mC]; antisense) [compound 531228] | 33% |
| 531168 (antisense eA*e[5mC]*e[5mC]*e[5mC]*e[5mC]*dA*dA*d[5mC]*dA*dG*dA*d[5mC]*dA*dG*d[5mC]*e[5mC]*e[5mC]*eA*e[5mC]*e[5mC]) [compound 531168] | 55% |
| 531215 (eT*eA*eG*eA*eG*dA*dT*dT*dT*dT*dA*dT*dG*dT*dA*e[5mC]*eT*eT*eG*eG; antisense) [compound 531215] | 63% |
| 531209 (eT*eG*eG*eA*eT*dT*d[5mC]*dA*dT*dT*dT*dT*d[5mC]*dT*dG*e[5mC]*eA*eA*eA*eT; antisense) [compound 531209] | 81% |
| 531202 (eA*eT*eT*eA*eA*dT*dA*dA*dG*d[5mC]*dA*dT*d[5mC]*dT*d[5mC]*eT*e[5mC]*eT*eG*eA; antisense) [compound 531202] | 31% |
| 531192 (eG*eA*eG*eT*eG*d[5mC]*d[5mC]*dA*dT*d[5mC]*dT*dT*d[5mC]*dT*d[5mC]*eT*eG*e[5mC]*eA*e[5mC]; antisense) [compound 531192] | 61% |
| 531211 (eT*eT*eG*eA*eT*dG*dT*d[5mC]*dA*dG*d[5mC]*dA*d[5mC]*dT*dG*eT*eT*eG*eA*e[5mC]; antisense) [compound 531211] | 77% |
| 531226 (eG*eA*e[5mC]*eA*eG*dT*dA*dG*dA*dG*dA*d[5mC]*dT*dG*dG*eG*eA*eA*eG*eG; antisense) [compound 531226] | 12% |
| 531225 (eA*e[5mC]*eA*e[5mC]*eT*dT*dG*dT*dA*d[5mC]*d[5mC]*d[5mC]*d[5mC]*dA*dT*eA*e[5mC]*eA*eT*e[5mC]; antisense) [compound 531225] | 45% |
| 531167 (antisense e[5mC]*eA*eA*eG*eA*dA*dA*d[5mC]*d[5mC]*dA*d[5mC]*d[5mC]*dA*dA*dA*eG*eG*eA*eA*eG) [compound 531167] | 37% |
| 531186 (e[5mC]*e[5mC]*eA*eT*eT*dA*d[5mC]*dT*d[5mC]*dT*d[5mC]*dA*dA*dG*d[5mC]*eT*e[5mC]*e[5mC]*eA*e[5mC]; antisense) [compound 531186] | 75% |
